Test results: patent US11840686B2, “Modulation of prekallikrein (PKK) expression” (Ionis Pharmaceuticals, Inc., priority 2013, dated 2023)
Strand notation (5' to 3'): a small letter for the sugar, then the base; units joined by * are phosphorothioate-linked, units joined directly phosphodiester-linked; [ ] holds rarer units or linkages, { } end groups; capitals alone tell only the bases. e = 2'-O-(2-methoxyethyl) (MOE); [5mC] = 5-methylcytosine; d = 2'-deoxy (DNA)

Tested on: human PKK mRNA
Experiment: Antisense inhibition of human PKK mRNA in HepaRG cells, 5,000 nM (Example 2)
Format: cell-based
Conditions: HepaRG cells, 5,000 nM antisense oligonucleotide, human PKK mRNA; Table 18
Procedure, shortened: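 Percent inhibition of PKK mRNA is relative to untreated control, with qRT-PCR (probe set RTS3454) values adjusted to total RNA by RIBOGREEN. Oligonucleotides, fully phosphorothioate 2′-MOE gapmers, were delivered at 5,000 nM by electroporation into 20,000 HepaRG cells/well for about 24 h.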

Substance | % inhibition
548706 (DNA e[5mC]*eT*eA*dG*dT*dT*dT*d[5mC]*d[5mC]*dT*dA*dT*dA*eA*e[5mC]*eT; antisense) [compound 548706] | 0%
548707 (DNA eA*e[5mC]*eT*dA*dG*dT*dT*dT*d[5mC]*d[5mC]*dT*dA*dT*eA*eA*e[5mC]; antisense) [compound 548707] | 10%
548708 (DNA eT*eA*e[5mC]*dT*dA*dG*dT*dT*dT*d[5mC]*d[5mC]*dT*dA*eT*eA*eA; antisense) [compound 548708] | 0%
548709 (DNA eG*eT*eA*d[5mC]*dT*dA*dG*dT*dT*dT*d[5mC]*d[5mC]*dT*eA*eT*eA; antisense) [compound 548709] | 0%
548710 (DNA eT*eG*eT*dA*d[5mC]*dT*dA*dG*dT*dT*dT*d[5mC]*d[5mC]*eT*eA*eT; antisense) [compound 548710] | 0%
548711 (DNA e[5mC]*eT*eG*dT*dA*d[5mC]*dT*dA*dG*dT*dT*dT*d[5mC]*e[5mC]*eT*eA; antisense) [compound 548711] | 21%
548712 (DNA eA*e[5mC]*eT*dG*dT*dA*d[5mC]*dT*dA*dG*dT*dT*dT*e[5mC]*e[5mC]*eT; antisense) [compound 548712] | 9%
548713 (DNA e[5mC]*eA*e[5mC]*dT*dG*dT*dA*d[5mC]*dT*dA*dG*dT*dT*eT*e[5mC]*e[5mC]; antisense) [compound 548713] | 33%
548714 (DNA eT*e[5mC]*eA*d[5mC]*dT*dG*dT*dA*d[5mC]*dT*dA*dG*dT*eT*eT*e[5mC]; antisense) [compound 548714] | 15%
548715 (DNA eA*eT*e[5mC]*dA*d[5mC]*dT*dG*dT*dA*d[5mC]*dT*dA*dG*eT*eT*eT; antisense) [compound 548715] | 0%
548716 (DNA eT*eA*eT*d[5mC]*dA*d[5mC]*dT*dG*dT*dA*d[5mC]*dT*dA*eG*eT*eT; antisense) [compound 548716] | 10%
548717 (DNA eA*e[5mC]*eT*dA*dG*dT*dT*dT*d[5mC]*d[5mC]*dT*dA*dT*eA*eA*e[5mC]*eT; antisense) [compound 548717] | 0%
548718 (DNA eT*eA*e[5mC]*dT*dA*dG*dT*dT*dT*d[5mC]*d[5mC]*dT*dA*eT*eA*eA*e[5mC]; antisense) [compound 548718] | 0%
548719 (DNA eG*eT*eA*d[5mC]*dT*dA*dG*dT*dT*dT*d[5mC]*d[5mC]*dT*eA*eT*eA*eA; antisense) [compound 548719] | 0%
548720 (DNA eT*eG*eT*dA*d[5mC]*dT*dA*dG*dT*dT*dT*d[5mC]*d[5mC]*eT*eA*eT*eA; antisense) [compound 548720] | 0%
548721 (DNA e[5mC]*eT*eG*dT*dA*d[5mC]*dT*dA*dG*dT*dT*dT*d[5mC]*e[5mC]*eT*eA*eT; antisense) [compound 548721] | 27%
548722 (DNA eA*e[5mC]*eT*dG*dT*dA*d[5mC]*dT*dA*dG*dT*dT*dT*e[5mC]*e[5mC]*eT*eA; antisense) [compound 548722] | 26%
548723 (DNA e[5mC]*eA*e[5mC]*dT*dG*dT*dA*d[5mC]*dT*dA*dG*dT*dT*eT*e[5mC]*e[5mC]*eT; antisense) [compound 548723] | 62%
548724 (DNA eT*e[5mC]*eA*d[5mC]*dT*dG*dT*dA*d[5mC]*dT*dA*dG*dT*eT*eT*e[5mC]*e[5mC]; antisense) [compound 548724] | 61%
548725 (DNA eA*eT*e[5mC]*dA*d[5mC]*dT*dG*dT*dA*d[5mC]*dT*dA*dG*eT*eT*eT*e[5mC]; antisense) [compound 548725] | 32%
548728 (DNA eT*eA*e[5mC]*eT*dA*dG*dT*dT*dT*d[5mC]*d[5mC]*dT*dA*dT*eA*eA*e[5mC]; antisense) [compound 548728] | 0%

Same assay, conditions: HepaRG cells, 5,000 nM antisense oligonucleotide; 5-10-5 gapmers; Table 17

Substance | % inhibition
547743 (eG*eG*eT*eG*eG*dT*dG*dG*dG*dA*dT*dT*dG*dG*dT*eG*eG*e[5mC]*eG*eG; antisense) [compound 547743] | 61%
547744 (eT*eG*eG*eT*eG*dG*dT*dG*dG*dG*dA*dT*dT*dG*dG*eT*eG*eG*e[5mC]*eG; antisense) [compound 547744] | 65%
547745 (eT*eT*eG*eG*eT*dG*dG*dT*dG*dG*dG*dA*dT*dT*dG*eG*eT*eG*eG*e[5mC]; antisense) [compound 547745] | 55%
547746 (eG*eT*eT*eG*eG*dT*dG*dG*d[5mC]*dG*dG*dG*dA*dT*d[5mC]*eG*eG*eT*eG*eG; antisense) [compound 547746] | 0%
547748 (eG*eG*eT*eT*eG*dG*dT*dG*dG*d[5mC]*dG*dG*dG*dA*dT*e[5mC]*eG*eG*eT*eG; antisense) [compound 547748] | 78%
547750 (eT*eG*eG*eT*eT*dG*dG*dT*dG*dG*d[5mC]*dG*dG*dG*dA*eT*e[5mC]*eG*eG*eT; antisense) [compound 547750] | 41%
547752 (eG*eT*eG*eG*eT*dT*dG*dG*dT*dG*dG*d[5mC]*dG*dG*dG*eA*eT*e[5mC]*eG*eG; antisense) [compound 547752] | 41%
547754 (eG*eG*eG*eA*eT*dT*dG*dG*dT*dG*dG*dT*dT*dG*dG*eT*eG*eG*e[5mC]*eG; antisense) [compound 547754] | 47%
547756 (antisense eG*eG*eG*eT*e[5mC]*dT*dT*dG*d[5mC]*dT*d[5mC]*d[5mC]*dA*d[5mC]*d[5mC]*e[5mC]*eA*e[5mC]*eA*eT) [compound 547756] | 49%
547758 (antisense e[5mC]*e[5mC]*eA*eA*eG*dT*dA*dG*dT*dG*d[5mC]*dA*dA*dG*dG*e[5mC]*eA*eT*eG*eT) [compound 547758] | 24%
547760 (antisense eA*eT*e[5mC]*eA*eT*dG*d[5mC]*dT*dT*dA*d[5mC]*dT*dG*d[5mC]*dA*eA*eG*eT*eG*eA) [compound 547760] | 19%
547762 (antisense eT*eG*eA*eA*eA*d[5mC]*dT*dG*dG*dG*d[5mC]*dA*dG*dT*d[5mC]*e[5mC]*eT*eT*e[5mC]*e[5mC]) [compound 547762] | 0%
547764 (antisense e[5mC]*e[5mC]*eA*e[5mC]*e[5mC]*dT*dT*d[5mC]*dT*dT*dA*d[5mC]*dA*dT*dA*eT*eG*e[5mC]*eT*eA) [compound 547764] | 24%
547766 (antisense eG*e[5mC]*e[5mC]*eT*e[5mC]*dT*d[5mC]*dA*dG*dA*d[5mC]*dG*dG*d[5mC]*dA*e[5mC]*eA*eG*eA*e[5mC]) [compound 547766] | 0%
547768 (antisense eT*eT*eG*e[5mC]*e[5mC]*d[5mC]*dT*d[5mC]*dA*d[5mC]*dA*d[5mC]*dA*dT*dT*e[5mC]*eG*eA*eA*eT) [compound 547768] | 0%
547770 (antisense eT*eG*e[5mC]*eT*eT*dT*d[5mC]*dT*dG*d[5mC]*d[5mC]*d[5mC]*dA*dA*d[5mC]*e[5mC]*eT*e[5mC]*eT*eA) [compound 547770] | 48%
547772 (antisense e[5mC]*eT*eG*eT*eG*d[5mC]*dT*d[5mC]*d[5mC]*d[5mC]*dG*dG*d[5mC]*d[5mC]*dA*eT*eT*eA*eG*e[5mC]) [compound 547772] | 0%
547774 (antisense eG*eA*eG*eA*e[5mC]*dA*dG*dT*dT*dT*dG*dG*d[5mC]*dA*dA*eG*e[5mC]*eT*eA*e[5mC]) [compound 547774] | 46%
547776 (antisense eG*eG*eA*eG*eA*dG*dA*dG*dA*d[5mC]*dG*dG*d[5mC]*dA*d[5mC]*e[5mC]*e[5mC]*eT*eG*eT) [compound 547776] | 48%
547778 (antisense eT*e[5mC]*eA*e[5mC]*e[5mC]*dT*dG*dT*dG*dA*dG*dT*dA*dA*d[5mC]*e[5mC]*eA*eA*eT*eA) [compound 547778] | 53%
547782 (antisense e[5mC]*e[5mC]*eA*eA*eG*dT*dA*dT*d[5mC]*dT*d[5mC]*dA*dT*dG*dT*eG*e[5mC]*e[5mC]*eT*eG) [compound 547782] | 67%

Same assay, conditions: human PKK mRNA, HepaRG cells, 5,000 nM antisense oligonucleotide, Table 18

Substance | % inhibition
548729 (DNA eG*eT*eA*e[5mC]*dT*dA*dG*dT*dT*dT*d[5mC]*d[5mC]*dT*dA*eT*eA*eA; antisense) [compound 548729] | 13%
548730 (DNA eT*eG*eT*eA*d[5mC]*dT*dA*dG*dT*dT*dT*d[5mC]*d[5mC]*dT*eA*eT*eA; antisense) [compound 548730] | 0%
548731 (DNA e[5mC]*eT*eG*eT*dA*d[5mC]*dT*dA*dG*dT*dT*dT*d[5mC]*d[5mC]*eT*eA*eT; antisense) [compound 548731] | 49%
548732 (DNA eA*e[5mC]*eT*eG*dT*dA*d[5mC]*dT*dA*dG*dT*dT*dT*d[5mC]*e[5mC]*eT*eA; antisense) [compound 548732] | 36%
548733 (DNA e[5mC]*eA*e[5mC]*eT*dG*dT*dA*d[5mC]*dT*dA*dG*dT*dT*dT*e[5mC]*e[5mC]*eT; antisense) [compound 548733] | 84%
548734 (DNA eT*e[5mC]*eA*e[5mC]*dT*dG*dT*dA*d[5mC]*dT*dA*dG*dT*dT*eT*e[5mC]*e[5mC]; antisense) [compound 548734] | 51%
548735 (DNA eA*eT*e[5mC]*eA*d[5mC]*dT*dG*dT*dA*d[5mC]*dT*dA*dG*dT*eT*eT*e[5mC]; antisense) [compound 548735] | 48%
548736 (DNA eT*eA*eT*e[5mC]*dA*d[5mC]*dT*dG*dT*dA*d[5mC]*dT*dA*dG*eT*eT*eT; antisense) [compound 548736] | 21%
548737 (DNA eA*e[5mC]*eT*eA*dG*dT*dT*dT*d[5mC]*d[5mC]*dT*dA*dT*eA*eA*e[5mC]*eT; antisense) [compound 548737] | 11%
